Source: patent US5494790A, “α-3 sialyltransferase” (Kyowa Hakko Kogyo Co., Ltd., priority 1991, dated 1996)

Tests used:
[1] = test system: α2→3 Sialyltransferase encoded in the plasmid pAMoPRSAL-35F (fused protein with the IgG-binding region of Staphylococcus aureus protein A); assay: Sialyltransferase activity on IgG Sepharose, HPLC of pyridylaminated sugar chain substrates (Table 1); format: biochemical, human; conditions: for α2→3 Sialyltransferase activity, pAMoPRSAL-35F, pmol: 0.1 mM substrate, 5 μl IgG Sepharose, 5 mM CMP-sialic acid, 37° C., 2 hours; for acceptance as substrate by the α2→3 sialyltransferase (in words): IgG Sepharose from Namalwa cells having pAMoPRSAL-35F; for α2→3 Sialyltransferase activity, pAMoPRSAL-35F, Relative activity: activity to the substrate LNnT taken as 100
[2] = target: T1, α2→3 sialyltransferase encoded in the plasmid pAMoPRSAW17-31F (fused protein with the IgG-binding region of Staphylococcus aureus protein A) (Homo sapiens, UniProt Q11206); assay: Sialyltransferase activity on IgG Sepharose, HPLC of pyridylaminated sugar chain substrates (Table 2); format: biochemical; conditions: for α2→3 Sialyltransferase activity, pAMoPRSAW17-31F, pmol: 0.1 mM substrate, 5 μl IgG Sepharose, 5 mM CMP-sialic acid, 37° C., 2 hours; for acceptance as substrate by the α2→3 sialyltransferase (in words): IgG Sepharose from Namalwa cells having pAMoPRSAW17-31F; for α2→3 Sialyltransferase activity, pAMoPRSAW17-31F, Relative activity: activity to the substrate LNnT taken as 100
T1 construct: from 31st Phe to 329th Phe; made in house
T1 sequence (Q11206 35-333): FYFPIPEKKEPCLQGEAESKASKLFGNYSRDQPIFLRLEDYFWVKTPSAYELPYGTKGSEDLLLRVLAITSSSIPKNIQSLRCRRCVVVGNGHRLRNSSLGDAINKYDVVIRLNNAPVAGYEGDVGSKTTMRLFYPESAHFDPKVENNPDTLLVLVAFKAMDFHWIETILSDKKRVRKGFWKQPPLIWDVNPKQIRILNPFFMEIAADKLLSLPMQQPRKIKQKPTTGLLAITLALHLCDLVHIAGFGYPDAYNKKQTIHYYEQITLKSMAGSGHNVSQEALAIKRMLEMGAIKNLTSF

[3] = target: T2, known α2→3 sialyltransferase (Rattus norvegicus, UniProt Q02734); conditions: activity to the substrate LNT taken as 100; cited from earlier work
T2 sequence (Q02734 1-374): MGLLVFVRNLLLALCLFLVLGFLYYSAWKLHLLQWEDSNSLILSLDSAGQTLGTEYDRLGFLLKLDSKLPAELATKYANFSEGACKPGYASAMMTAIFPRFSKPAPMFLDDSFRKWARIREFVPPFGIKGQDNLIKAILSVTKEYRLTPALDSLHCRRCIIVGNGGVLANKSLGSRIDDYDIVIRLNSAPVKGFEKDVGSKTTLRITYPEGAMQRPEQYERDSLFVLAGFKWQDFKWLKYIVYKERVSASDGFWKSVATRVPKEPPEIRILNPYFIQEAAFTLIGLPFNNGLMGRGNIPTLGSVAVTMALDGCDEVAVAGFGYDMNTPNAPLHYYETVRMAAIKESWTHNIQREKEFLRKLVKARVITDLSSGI

Compound	α2→3 Sialyltransferase activity, pAMoPRSAL-35F, pmol [1]	acceptance as substrate by the α2→3 sialyltransferase (in words) [1]	α2→3 Sialyltransferase activity, pAMoPRSAL-35F, Relative activity [1]	α2→3 Sialyltransferase activity, pAMoPRSAW17-31F, pmol [2]	acceptance as substrate by the α2→3 sialyltransferase (in words) [2]	α2→3 Sialyltransferase activity, pAMoPRSAW17-31F, Relative activity [2]	Known α2→3 ST Relative activity (Table 1) [3]	Known α2→3 ST Relative activity (Table 2) [3]
CC(=O)N[C@H]1[C@H](O[C@H]2[C@@H](O)[C@@H](CO)O[C@@H](O[C@H]3[C@H](O)[C@@H](O)C(O)O[C@@H]3CO)[C@@H]2O)O[C@H](CO)[C@@H](O)[C@@H]1O[C@@H]1O[C@H](CO)[C@H](O)[C@H](O)[C@H]1O (some centres unmarked) [LNT, Galβ1-3GlcNAcβ1-3Galβ1-4Glc]	23.8 pmol	can take not only LNnT but also LNT as the substrate	46	47.5 pmol	can take not only LNnT but also LNT as the substrate	42	100	100
CC(=O)N[C@H]1[C@H](O[C@H]2[C@@H](O)[C@@H](CO)O[C@@H](O[C@H]3[C@H](O)[C@@H](O)C(O)O[C@@H]3CO)[C@@H]2O)O[C@H](CO)[C@@H](O[C@@H]2O[C@H](CO)[C@H](O)[C@H](O)[C@H]2O)[C@@H]1O (some centres unmarked) [LNnT, Galβ1-4GlcNAcβ1-3Galβ1-4Glc]	51.3 pmol	can take not only LNnT but also LNT as the substrate	100	113.8 pmol	can take not only LNnT but also LNT as the substrate	100	6	6
CC(=O)N[C@H]1[C@H](O[C@H]2[C@@H](O)[C@@H](CO)O[C@@H](O[C@H]3[C@H](O)[C@@H](O)C(O)O[C@@H]3CO)[C@@H]2O)O[C@H](CO)[C@@H](O[C@@H]2O[C@H](CO)[C@H](O)[C@H](O)[C@H]2O)[C@@H]1O[C@@H]1O[C@@H](C)[C@@H](O)[C@@H](O)[C@@H]1O (some centres unmarked) [lacto-N-fucopentaose III]	8.1 pmol	can take LNFP-III as the substrate	16	9.4 pmol	can take LNFP-III as the substrate	8		
CC(=O)N[C@H]1[C@H](O[C@H]2[C@@H](O)[C@@H](CO)O[C@@H](O[C@H]3[C@H](O[C@@H]4O[C@@H](C)[C@@H](O)[C@@H](O)[C@@H]4O)[C@@H](O)C(O)O[C@@H]3CO)[C@@H]2O)O[C@H](CO)[C@@H](O)[C@@H]1O[C@@H]1O[C@H](CO)[C@H](O)[C@H](O)[C@H]1O (some centres unmarked) [lacto-N-fucopentaose V]	28.8 pmol		56	36.3 pmol		32		
